Test results: patent US12209038B2, “Effluent” (LINCOLN UNIVERSITY, priority 2019, dated 2025)
Like-named read-outs stand apart in the source and are kept apart here.

What was measured:
[1] = 200 mg Fe/L of FDE, same rate of PFS and FS
Procedure: The objective of Experiment 6 was to compare the effectiveness of ferric sulphate (FS) versus polyferric sulphate (PFS) to reduce methane emissions from treated effluent. Experiment 6 was conducted using the same large (3.5 m deep×0.5 m diameter) PVC pipes described in Experiment 5. The gas capture equipment and measurement process were also identical to that described in Experiment 5.
There were three treatments: (i) untreated FDE; (ii) TE produced using PFS and (iii) TE produced using FS. There were four replicates of each treatment set out in a randomised block design. Five hundred and sixty litres of farm dairy effluent were pumped from the FDE storage pond on Lincoln University Dairy Farm into each column leaving a head space height of 10 cm. The same rate of PFS and FS was used (200 mg Fe/L of FDE). The PFS and FS solution was mixed into the effluent for two minutes using a handheld electric drill fitted with a paddle stirrer.

[2] = Experiment 7: glass jars, different sulphate and/or iron compounds, methane and hydrogen sulphide
Procedure: The objective of Experiment 7 was to measure the effect of different sulphate and/or iron compounds on emissions of methane and hydrogen sulphide gases from treated effluent. The experiment was conducted using the same 1.5 L glass jars and methods of measurement described in Experiment 2 above. There were 10 treatments: (i) untreated FDE, (ii) PFS treated effluent, (iii) calcium sulphate (CaSO4) treated effluent, (iv) potassium sulphate (K2SO4) treated effluent, (v) aluminium sulphate (Al2(SO4)3) treated effluent, (vi) magnesium sulphate (MgSO4) treated effluent, (vii) sodium sulphate (Na2SO4) treated effluent, (viii), ferrous sulphate (i.e. the divalent form of iron sulphate) (FeSO4) treated effluent, (ix) ferric chloride (FeCl3) treated effluent, and (x) ferrous chloride (FeCl2) treated effluent. The sulphate treatment chemicals were all used at the same rate of sulphate as applied in the PFS treatment (326 mg SO4/L) and the iron treatment chemicals were all used at the same rate of iron as applied in the PFS treatment (133 mg Fe/L).

[3] = iron chemicals at 133 mg Fe/L, same iron rate as PFS treatment

SMILES | amount of methane emitted from FDE [2] | effectiveness in reducing methane emitted compared with PFS [2] | emission of hydrogen sulphide (H2S) [2] | other results
O=S(=O)([O-])[O-].O=S(=O)([O-])[O-].O=S(=O)([O-])[O-].[Fe+3].[Fe+3] [FS, ferric sulphate] | – | – | – | effectiveness in reducing the methane emission flux compared with PFS [1]: equally as effective; effectiveness in reducing the total amount of methane emitted compared with PFS [1]: equally as effective
O=S(=O)([O-])[O-].[Ca+2] [calcium sulphate] | can be reduced | none of these chemicals were as effective as PFS | continued to produce, or enhanced the production of | –
[Cl][Fe]([Cl])[Cl] [ferric chloride] | – | – | – | effectiveness in reducing methane emission compared with PFS [2, 3]: not nearly as effective
[Cl][Fe][Cl] [ferrous chloride] | – | – | – | effectiveness in reducing methane emission compared with PFS [2, 3]: not nearly as effective
O=S(=O)([O-])[O-].[Fe+2] [ferrous sulphate] | – | – | – | effectiveness in reducing methane emission compared with PFS [2]: not nearly as effective
O=S(=O)([O-])[O-].[Mg+2] [magnesium sulphate] | can be reduced | none of these chemicals were as effective as PFS | continued to produce, or enhanced the production of | –
O=S(=O)([O-])[O-].[K+].[K+] [potassium sulphate] | can be reduced | none of these chemicals were as effective as PFS | continued to produce, or enhanced the production of | –
O=S(=O)([O-])[O-].[Na+].[Na+] [sodium sulphate] | can be reduced | none of these chemicals were as effective as PFS | continued to produce, or enhanced the production of | –
